Experimental data: patent US20230167118A1, “DEGRADATION OF BRUTON'S TYROSINE KINASE (BTK) BY CONJUGATION OF BTK INIDBITORS WITH E3 LIGASE LIGAND AND METHODS OF USE” (BEIGENE, LTD., priority 2020, published 2023)

Columns and labels:
[1] = target: T1, BTK (Homo sapiens, UniProt Q06187); assay: Cell Degradation: BTK degradation in TMD-8 cells, HTRF assay; type: cell-based; conditions: 6 h treatment, IC50 (DC50) of BTK degradation
T1 construct: High control=Cell group with added DMSO and without compound, indicating microplate readings without BTK degradation; endogenous in cells; host or cells: TMD-8 cells
T1 sequence (Q06187 whole entry): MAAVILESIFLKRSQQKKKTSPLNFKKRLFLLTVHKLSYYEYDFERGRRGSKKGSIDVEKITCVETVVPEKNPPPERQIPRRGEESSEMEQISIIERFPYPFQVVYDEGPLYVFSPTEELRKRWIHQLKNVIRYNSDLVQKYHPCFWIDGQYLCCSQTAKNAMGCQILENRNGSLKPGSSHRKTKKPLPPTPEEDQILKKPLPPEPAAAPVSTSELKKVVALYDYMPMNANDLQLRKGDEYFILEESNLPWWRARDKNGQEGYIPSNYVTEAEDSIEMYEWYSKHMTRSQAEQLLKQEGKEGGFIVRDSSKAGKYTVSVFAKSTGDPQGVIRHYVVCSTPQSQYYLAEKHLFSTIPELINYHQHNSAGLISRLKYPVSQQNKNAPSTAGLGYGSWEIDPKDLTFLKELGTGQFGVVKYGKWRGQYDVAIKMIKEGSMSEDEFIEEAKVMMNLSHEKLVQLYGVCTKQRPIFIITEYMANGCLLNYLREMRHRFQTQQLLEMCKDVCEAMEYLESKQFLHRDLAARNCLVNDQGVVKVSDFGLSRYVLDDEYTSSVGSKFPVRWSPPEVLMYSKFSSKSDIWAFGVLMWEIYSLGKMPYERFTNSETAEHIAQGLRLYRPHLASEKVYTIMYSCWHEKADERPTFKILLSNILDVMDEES
In short: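 TMD-8 cells treated 6 h with 8-dose 6-fold dilutions in 0.2% DMSO, then lysed and BTK quantified by HTRF (665/620 nm). Degradation % normalised to high/low controls; DC50 from four-parameter fit, Dmax as maximal degradation.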

[2] = tested on: HEK-293 cells; assay: HEK-293 Cytotoxicity Assay (CellTiter-Glo); type: cell-based; conditions: Homo sapiens, HEK293, 72 h incubation, CellTiter-Glo luminescence
In short: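 HEK-293 cells treated 72 h with 8 concentrations (4-fold dilutions, 0.2% DMSO final). Viability read by CellTiter-Glo luminescence; IC50 from four-parameter logistic fit of % inhibition.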

| DC50 [1] [nM] | SMILES | IC50 [2] [nM] |
| --- | --- | --- |
| 1.5 | Cc1cc(-c2ncnc3[nH]c(-c4ccc(N5CCN(CC6CCN(c7ccc(N8CCC(=O)NC8=O)cc7)CC6)CC5)cc4)cc23)ccc1[C@@H](C)NC(=O)c1noc(C2(C)CC2)n1 [Example 90, (R)-N-(1-(4-(6-(4-(4-((1-(4-(2,4-dioxotetrahydropyrimidin-1(2H)-yl)phenyl)piperidin-4-yl)methyl)piperazin-1-yl)phenyl)-7H-pyrrolo[2,3-d]pyrimidin-4-yl)-2-methylphenyl)ethyl)-5-(1-methylcyclopropyl)-1,2,4-oxadiazole-3-carboxamide] | > 10000 |
| 0.6 | Cc1cc(-c2ncnc3[nH]c(-c4ccc(N5CCN(CC6CCN(c7ccc(N8CCC(=O)NC8=O)cc7)CC6)CC5)nc4)cc23)ccc1[C@@H](C)NC(=O)c1noc(C(C)(C)C)n1 [Example 104, (R)-5-(tert-butyl)-N-(1-(4-(6-(6-(4-((1-(4-(2,4-dioxotetrahydropyrimidin-1(2H)-yl)phenyl)piperidin-4-yl)methyl)piperazin-1-yl)pyridin-3-yl)-7H-pyrrolo[2,3-d]pyrimidin-4-yl)-2-methylphenyl)ethyl)-1,2,4-oxadiazole-3-carboxamide] | > 10000 |

Further lines, the compound ahead of its results:

| SMILES | DC50 [1] [nM] | IC50 [2] [nM] |
| --- | --- | --- |
| Cc1cc(-c2ncnc3[nH]c(-c4ccc(N5CCN(CC6CCN(c7ccc(N8CCC(=O)NC8=O)c(C)c7)CC6)CC5)cc4)nc23)ccc1[C@@H](C)NC(=O)c1noc(C(C)(C)C)n1 [Example 73, (R)-5-(tert-butyl)-N-(1-(4-(8-(4-(4-((1-(4-(2,4-dioxotetrahydropyrimidin-1(2H)-yl)-3-methylphenyl)piperidin-4-yl)methyl)piperazin-1-yl)phenyl)-9H-purin-6-yl)-2-methylphenyl)ethyl)-1,2,4-oxadiazole-3-carboxamide] | 1.1 | > 10000 |
| C[C@@H](NC(=O)c1nc(C(C)(C)C)no1)c1ccc(-c2ncnc3[nH]c(-c4ccc(N5CCN(CC6CCN(c7ccc(N8CCC(=O)NC8=O)cc7)CC6)CC5)cc4)cc23)cc1CO [Example 74] | 0.4 | > 10000 |
| Cc1c([C@@H](C)NC(=O)c2nc(C(C)(C)C)no2)ccc(-c2ncnc3[nH]c(-c4ccc(N5CCN(CC6CCN(c7ccc(N8CCC(=O)NC8=O)cc7)CC6)CC5)cc4)cc23)c1F [Example 78, (R)-3-(tert-butyl)-N-(1-(4-(6-(4-(4-((1-(4-(2,4-dioxotetrahydropyrimidin-1(2H)-yl)phenyl)piperidin-4-yl)methyl)piperazin-1-yl)phenyl)-7H-pyrrolo[2,3-d]pyrimidin-4-yl)-3-fluoro-2-methylphenyl)ethyl)-1,2,4-oxadiazole-5-carboxamide] | 0.88 | > 10000 |
| Cc1cc(-c2ncnc3[nH]c(-c4ccc(N5CCN(CC6CCN(c7ccc(N8CCC(=O)NC8=O)cc7)CC6)CC5)cc4)cc23)c(F)cc1[C@@H](C)NC(=O)c1nc(C(C)(C)C)no1 [Example 79, (R)-3-(tert-butyl)-N-(1-(4-(6-(4-(4-((1-(4-(2,4-dioxotetrahydropyrimidin-1(2H)-yl)phenyl)piperidin-4-yl)methyl)piperazin-1-yl)phenyl)-7H-pyrrolo[2,3-d]pyrimidin-4-yl)-5-fluoro-2-methylphenyl)ethyl)-1,2,4-oxadiazole-5-carboxamide] | 1.5 | > 10000 |
| C[C@@H](NC(=O)c1nc(C(C)(C)C)no1)c1ccc(-c2ncnc3[nH]c(-c4ccc(N5CCN(CC6CCN(c7ccc(N8CCC(=O)NC8=O)cc7)CC6)C[C@@H]5C)nc4)cc23)cc1F [Example 80, 3-(tert-butyl)-N-((R)-1-(4-(6-(6-((S)-4-((1-(4-(2,4-dioxotetrahydropyrimidin-1(2H)-yl)phenyl)piperidin-4-yl)methyl)-2-methylpiperazin-1-yl)pyridin-3-yl)-7H-pyrrolo[2,3-d]pyrimidin-4-yl)-2-fluorophenyl)ethyl)-1,2,4-oxadiazole-5-carboxamide] | 4.3 | > 10000 |
